Patent US20100247659A1, “PHENYLPHTHALIMIDE ANALOGS FOR TREATING DIABETIC MACULAR EDEMA” (Charlesson, LLC, priority 2007, published 2010)

Assays:
[1] = Drying at elevated temperature; format: physicochemical; settings: 70° C., 89 h
Experimental: Synthesis of Compound 4 was successfully carried out via catalytic hydrogenation and via transfer hydrogenation. Catalytic hydrogenation required a longer reaction time (24 h) under 45-50 psi. This method requires specialized equipment. […] Scale-up of this reaction gave 99.2% pure material in 91% yield.
A 12 L, 3-neck round bottom flask, equipped appropriately and under nitrogen, was charged with a slurry of 10% palladium on carbon (24.5 g, 10% (w/w)) in ethanol (200 proof, 1 L). To this slurry was charged (2,6-diisopropylphenyl)-5-nitro-1H-isoindole-1,3-dione (245.0 g, 0.70 mol) followed by ethanol (200 proof, 2.92 L, 3.92 L total, 16 mL/g) and triethylamine (311.7 g, 3.08 mol, 4.40 eq). Formic acid (135.8 g, 2.95 mol, 4.22 eq) was added slowly over 25 min. The slurry was heated to reflux and the reaction progress was monitored by HPLC. At 3.5 h, the mixture was filtered through a Celite bed to remove the catalyst. The filter bed was rinsed with ethanol (200 proof, 4×175 mL). The filtrate was then clarified through Whatman filter paper to remove any particulates. Ethanol (200 proof, 2×150 mL) was used as a rinse. To the solution was added water (deionized, 3.92 L), over 45 min. The resulting slurry was stirred at ambient temperature overnight. The following day, the slurry was cooled to 0-10° C. for 2 h. […]

[2] = tested on: normal BN rats; assay: Ocular toxicity, ERG recording; format: in vivo, rat; settings: 2 μg/eye intravitreal, weeks 1-4
Experimental: Electroretinogram (ERG) recording: Full-field ERGs were recorded by Espion E^2 ERG system (Diagnosys LLC) as described previously (Rohrer, Journal of Neuroscience, 1999, 19: […]) by two protocols: (A) 10 ms flashes of increasing light intensities under scotopic and photopic conditions, and (B) 2 Hz flicker ERG under photopic conditions. BN rats received an intravitreal injection of Compound 4 (2.0 μg/eye, 5 μl/eye of 0.4 mg/ml in BN rat serum) or equal amount of BN rat serum, respectively. At various intervals after injection, the peak a-wave amplitude was measured from baseline to the initial negative-going voltage, whereas peak b-wave amplitude was measured from the trough of the a-wave to the peak of the positive b-wave. Flicker amplitudes were measured from the preceding trough to the peak of the flicker response. Data was expressed as mean±SD and compared between the compound-injected eyes and control eyes by the paired Student's t-test.
To test the potential ocular toxicities of Compound 4, normal rats at age of 8 weeks received an intravitreal injection of a high dose of Compound 4, 2 μg/eye (5 μl/eye of 0.4 mg/ml in BN rat serum) or an equal amount of BN rat serum as the vehicle control. Prior to study initiation, and after weeks 1, 2, 3, and 4 following the injection, visual function was evaluated by ERG recording. […]

[3] = tested on: STZ-diabetic rats; settings: cited from earlier work
[4] = tested on: OIR rats; assay: Retinal NV in OIR rats, fluorescein angiography; format: in vivo, rat
Source text: Induction of oxygen-induced retinopathy (OIR): Induction of OIR followed the procedure as described by Smith et al (Smith, et al. Invest. Opthalmol. Vis. Sci. 1994, 35: 101-111) with some modifications. Briefly, Newborn Brown Norway (BN) rats (Charles River Laboratories) at postnatal day 7 (P7) were exposed to hyperoxia (75% O2) for 5 days (P7-12) and then returned to normoxia (room air) to induce retinopathy.
Retinal angiography with high-molecular-weight fluorescein: High molecular weight fluorescein-dextran was used in retinal angiography as described by Smith et al (Smith, et al. Invest. Opthalmol. Vis. Sci. 1994, 35:101-111). Briefly, animals were anesthetized with ketamine (100 mg/kg of body weight) plus acepromazine (5 mg/kg of body weight) and then perfused through the left ventricle with 50 mg/ml of high molecular weight fluorescein-dextran in PBS. The eyes were marked for orientation, enucleated, and fixed in 4% paraformaldeyde for 3-24 h. Several incisions were made and the retinas were flat-mounted on a gelatin-coated slide. The vasculature was then examined under a fluorescent microscope. Both the total retinal area and the area of the avascular regions were measured using a computerized image-analysis system and averaged within each group.
Newborn BN rats were exposed to 75% oxygen from age P7 to P12. […]

Row | SMILES | stability on drying [1] | ERG a-wave and b-wave amplitudes [2] | VEGF in ocular fluid [3] | thickening of retinal capillary basement membrane [3] | inhibition of retinal NV ([4]; 1.0 μg/eye intravitreal, evaluated P20) | effect on retinal NV, angiographs (FIG. 9) ([4]; 5 μl of 0.8 mM per eye, angiography)
1 | CC(C)c1cccc(C(C)C)c1N1C(=O)c2ccc(N)cc2C1=O [Compound 4] | does not cause decomposition | no detectable change in the a-wave and b-wave amplitudes |  |  |  | 
2 | O=C1CCC(N2C(=O)c3ccccc3C2=O)C(=O)N1 (stereo not drawn) [thalidomide] |  |  | blocked the increase of VEGF in ocular fluid | inhibited the thickening of retinal capillary basement membrane | lacked significant inhibition of retinal NV | did not reduce the NV
